Reference: patent US20260183274A1, “PDK1 REGULATORY COMPOUND AND COMPOSITION CONTAINING THE SAME” (PROVIBIO CO., LTD., priority 2024, published 2026)

Tested on: T cells isolated from mouse spleens
Test: T cell proliferation inhibition (CFSE flow cytometry, anti-CD3/anti-CD28 stimulation)
Type: cell-based
Conditions: mouse spleen T cells, 3 days; for inhibition at 0.01 µM / inhibition at 0.1 µM / inhibition at 1 µM / inhibition at 10 µM / inhibition at 30 µM / inhibition at 50 µM: Mus musculus, T-cell, 72 h, read-out: Proliferation inhibition rate (%)
Method: To verify the T cell proliferation inhibitory effect of the compounds according to the present invention, the following experiment was performed based on flow cytometry analysis using carboxyfluorescein diacetate succinimidyl ester (CFSE), a fluorescent dye that binds to intracellular molecules via covalent bonds.
Spleens were extracted from 7-week-old C57BL/6 mice, ground, and then separated into single cells using a strainer (40 μm pore size, SPL). Red blood cells were removed using ACK (Ammonium-Chloride-Potassium) lysis buffer to isolate white blood cells.
Finally, using a MACS Magnetic Stand and LS column, T cells were isolated from the spleen.
The T cells isolated from the spleen were resuspended in 1 mL of free medium (RPMI-1640+200 U/mL penicillin+200 μg/mL streptomycin), and 0.3 μL of CFSE (10 mM) was added. The mixture was incubated at 37° C. for 5 minutes.
Free medium (10 mL) was added to stop the reaction, and the cells were centrifuged to obtain the cell pellet.
RPMI 1640 medium containing 10% FBS, 100 U/mL penicillin, 100 μg/mL streptomycin, and resuspended the cells. The cells were then seeded into a 96-well plate at a density of 2×10^5 cells per well and activated with CD3 and CD28 antibodies (0.5 μg/mL each) to activate T cells.
The compound diluted in DMSO was added at concentrations of 10 nM, 100 nM, 1 μM, 10 μM, 30 μM, and 50 μM, with three wells per concentration, and cultured at 37° C. and 5% CO2 for three days. The cells were then analyzed using a FACS Canto instrument.
The proliferation inhibition rate (%) was calculated using the following formula: […]

Row | Structure (SMILES) | Proliferation inhibition rate (%) (compound 100 nM) | Proliferation inhibition rate (%) (compound 1 μM) | Proliferation inhibition rate (%) (compound 10 μM) | Proliferation inhibition rate (%) (compound 30 μM) | Proliferation inhibition rate (%) (compound 50 μM) | inhibition at 0.01 µM (compound 10 nM) [%] | inhibition at 0.1 µM (compound 100 nM) [%] | inhibition at 1 µM (compound 1 μM) [%] | inhibition at 10 µM (compound 10 μM) [%] | inhibition at 30 µM (compound 30 μM) [%] | inhibition at 50 µM (compound 50 μM) [%] | also measured
1 | Nc1nc(NC(=O)CCCCCCCCCCCCN2CCC(O)CC2)nc2nc[nH]c12 [Compound 13, 12-(4-hydroxypiperidin-1-yl)dodecyl-N-(6-aminopurine-2-yl) carboxamide] |  |  |  |  |  |  |  |  |  |  |  | Proliferation inhibition rate (%) (compound 10 nM, listed as GO87, 0.01 µM): 9.13%; Proliferation inhibition rate (%) (compound 100 nM, listed as GO87, 0.1 µM): 1.71%; Proliferation inhibition rate (%) (compound 10 μM, listed as GO87, 10 µM): 81.15%
2 | Nc1ncccc1C(=O)NCCCCCCCCCCCCN1CCC2CCCCC2C1 (stereo not shown) [Compound 16, 2-Amino-N-(12-(octahydroisoquinolin-2 (1H)-yl)dodecyl) nicotinamide] | −2.93 | 100.00 | 100.00 | 100.00 | 100.00 |  |  |  |  |  |  | Proliferation inhibition rate (%) (compound 10 nM): 4.13%
3 | Nc1ncccc1C(=O)NCCCCCCCCCCCCN1CCc2ccccc2C1 [Compound 17, 2-Amino-N-(12-(3,4-dihydroisoquinolin-2 (1H)-yl)dodecyl) nicotinamide] |  |  |  |  |  |  |  |  |  |  |  | Proliferation inhibition rate (%) (compound 10 nM, listed as PBK-2024-004, 0.01 µM): 0.00%; Proliferation inhibition rate (%) (compound 100 nM, listed as PBK-2024-004, 0.1 µM): −14.00%; Proliferation inhibition rate (%) (compound 1 μM, listed as PBK-2024-004, 1 µM): 100.00%; Proliferation inhibition rate (%) (compound 10 μM, listed as PBK-2024-004, 10 µM): 100.00%
4 | CN(CCCCCCCCCCCCNC(=O)c1cccnc1N)C1CCCCC1 [Compound 34, 2-Amino-N-(12-(cyclohexyl(methyl)amino)dodecyl) nicotinamide] | 100.00 | 100.00 | 100.00 | 100.00 | 100.00 |  |  |  |  |  |  | Proliferation inhibition rate (%) (compound 10 nM): 2.08%
5 | CC1CN(CCCCCCCCCCCCNC(=O)c2cccnc2N)C(C)CN1.Cl (stereo not shown) [Compound 36, 2-Amino-N-(12-(2,5-dimethylpiperazin-1-yl)dodecyl) nicotinamide hydrochloride] | 100.00 | 100.00 | 100.00 | 100.00 | 100.00 |  |  |  |  |  |  | Proliferation inhibition rate (%) (compound 10 nM): −38.89%
6 | Nc1ncccc1C(=O)NCCCCCCCCCCCCN1CCC(O)CC1 [Compound 48, 2-Amino-N-(12-(4-hydroxypiperidin-1-yl)dodecyl) nicotinamide] | 100.00 | 100.00 | 100.00 | 100.00 | 100.00 |  |  |  |  |  |  | Proliferation inhibition rate (%) (compound 10 nM, listed as PBK-2025-012, 0.01 µM): −18.31%
7 | CN(CCCCCCCCCCCCNC(=O)c1cccnc1N)C(C)(C)C [Compound 53, 2-Amino-N-(12-(tert-butyl(methyl)amino)dodecyl) nicotinamide] | 100.00 | 100.00 | 100.00 | 100.00 | 100.00 |  |  |  |  |  |  | Proliferation inhibition rate (%) (compound 10 nM): −26.59%
8 | O=C(NCCCCCCCCCCCCF)c1cccnc1Br [Compound 58, 2-Bromo-N-(12-fluoro-dodecyl)-nicotinamide] |  |  |  |  |  | -4.38 | 1.78 | 1.92 | 20 | 78.9 | 95.8 | 
9 | O=C(NCCCCCCCCCCCCF)c1ccncc1Nc1cccc(C(F)(F)F)c1 [Compound 59, N-(12-fluoro-dodecyl)-3-(3-trifluoromethyl-phenylamino)-isonicotinamide] |  |  |  |  |  | 0 | 0 | 0 | -8.32 | 78.4 | 99.8 | 
10 | O=C(NCCCCCCCCCCCCF)c1cnccc1Cl [Compound 60, 4-Chloro-N-(12-fluoro-dodecyl)-nicotinamide] |  |  |  |  |  | -1.92 | 8.77 | 6.85 | 63.5 | 100 | 100 | 
11 | CS(=O)(=O)c1ncccc1C(=O)NCCCCCCCCCCCCF [Compound 67, N-(12-fluoro-dodecyl)-2-methylsulfonyl-nicotinamide] |  |  |  |  |  | 0 | 0 | 0 | -3.83 | 73.8 | 100 | 
12 | O=C(NCCCCCCCCCCCCF)c1ccncc1I [Compound 76, N-(12-fluoro-dodecyl)-3-iodo-isonicotinamide] |  |  |  |  |  | 0 | 0 | 0 | -4.95 | 23.7 | 97.8 | 
13 | N#CCCCCCCCCCCNC(=O)c1ccccc1Br [Compound 77, 2-Bromo-N-(10-cyano-decyl)benzamide] |  |  |  |  |  | 1.51 | -3.97 | 15.3 | 2.09 | 3.8 | 32.2 | 
14 | Nc1ncccc1C(=O)NCCCN1CCOCC1 [Compound 78, 2-amino-N-(3-morpholin-4-yl-propyl)nicotinamide] |  |  |  |  |  | -7.14 | -4.19 | -3.73 | 0.68 | 4.51 | 8.76 | 
15 | N#CCCCCCCCCCCNC(=O)c1cccnc1N [Compound 79, 2-amino-N-(10-cyano-decyl)-nicotinamide] |  |  |  |  |  | -2.19 | 1.23 | 7.12 | 11 | 27.9 | 34.7 | 
16 | CCOC(=O)C1CCCN(CCCCCCCCCCCCNC(=O)c2cccnc2N)C1 (stereo not shown) [Compound 92, ethyl 1-(12-(2-aminonicotinamido)dodecyl)piperidine-3-carboxylate] |  |  |  |  |  | -9.65 | 100 | 100 | 100 | 100 | 100 | 
17 | COC(=O)C1CCN(CCCCCCCCCCCCNC(=O)c2cccnc2N)CC1 [Compound 93, methyl 1-(12-(2-aminonicotinamido)dodecyl)piperidine-4-carboxylate] |  |  |  |  |  | -12.9 | 100 | 100 | 100 | 100 | 100 | 
18 | COC1CCN(CCCCCCCCCCCCNC(=O)c2cccnc2N)CC1 [Compound 94, 2-amino-N-(12-(4-methoxypiperidin-1-yl)dodecyl) nicotinamide] | 100.00 | 100.00 | 100.00 | 100.00 | 100.00 |  |  |  |  |  |  | Proliferation inhibition rate (%) (compound 10 nM): −25.44%
19 | COCCN1CCN(CCCCCCCCCCCCNC(=O)c2cccnc2N)CC1 [Compound 95, 2-amino-N-(12-(4-(2-methoxyethyl)piperazin-1-yl)dodecyl)nicotinamide] |  |  |  |  |  | 94.4 | 100 | 100 | 100 | 100 | 100 | 
20 | C=CCN(C)CCCCCCCCCCCCNC(=O)c1cccnc1N [Compound 96, N-(12-(allyl(methyl)amino)dodecyl)-2-aminonicotinamide] |  |  |  |  |  | -0.58 | 100 | 100 | 100 | 100 | 100 | 
21 | Nc1ncccc1C(=O)NCCCCCCCCCCCCN1CCN(C=O)CC1 [Compound 97, 2-amino-N-(12-(4-formylpiperazin-1-yl)dodecyl) nicotinamide] | 40.64 | 100.00 | 100.00 | 100.00 | 100.00 |  |  |  |  |  |  | Proliferation inhibition rate (%) (compound 10 nM): 3.51%
